Source: patent publication US5585491A, “Antibacterial agents” (Otsuka Pharmaceutical Co., Ltd., priority 1995, dated 1996)
Converted amounts (≈) assume the structure as drawn. Where two headings read alike, the source gives them in different places.

What was measured:
Experiment in all cases: In vitro antibacterial activity, microtitration dilution method (MIC)
Assay type in all cases: cell-based
[1] = tested on: Staphylococcus aureus H 228; conditions: H228; Staphylococcus aureus H 228, microtitration dilution; read-out: Minimal Inhibitory Concentration MIC
Excerpt: (§1) The compounds of the invention display antibacterial activity when tested by the microtitration dilution method as described in Heifetz, et al, Antimicr. Agents & Chemoth., 6, 124 (1974), which is incorporated herein by reference. By use of this method, the followed minimum inhibitory concentration values (MICs in μg/mL) were obtained for representative compounds of the invention.

Escherichia coli Vogel = conditions: read-out: Minimal Inhibitory Concentration MIC
Excerpt: as §1

[2] = tested on: Streptococcus pyogenes C-203; conditions: C203; Streptococcus pyogenes C-203, microtitration dilution; read-out: Minimal Inhibitory Concentration MIC
Excerpt: as §1

[3] = tested on: Enterobacter cloacae MA 2646
Excerpt: as §1

Proteus rettgeri M 1771 = conditions: Providencia rettgeri
Excerpt: (§2) Agents & Chemoth., 6, 124 (1974), which is incorporated herein by reference.

[4] = tested on: Pseudomonas aeruginosa UI-18
Excerpt: as §2

[5] = tested on: Streptococcus pneumoniae SV-1
Excerpt: as §2

[6] = tested on: Streptococcus faecalis MGH-2; conditions: Enterococcus faecalis
Excerpt: as §2

[7] = tested on: Klebsiella pneumoniae MGH-2
Excerpt: as §2

[8] = tested on: Staphylococcus aureus UC-76
Excerpt: as §2

[9] = Escherichia coli Vogel, microtitration dilution
[10] = Enterobacter cloacae, MA2646, read-out: Minimal Inhibitory Concentration MIC
[11] = M1771, Proteus rettgeri M 1771, microtitration dilution, read-out: Minimal Inhibitory Concentration MIC
[12] = UI18, Pseudomonas aeruginosa UI-18, microtitration dilution, read-out: Minimal Inhibitory Concentration MIC
[13] = SV1, Streptococcus pneumoniae SV-1, microtitration dilution, read-out: Minimal Inhibitory Concentration MIC
[14] = MGH2, Streptococcus faecalis MGH-2, microtitration dilution, read-out: Minimal Inhibitory Concentration MIC
[15] = MGH2, Klebsiella pneumoniae MGH-2, microtitration dilution, read-out: Minimal Inhibitory Concentration MIC
[16] = UC76, Staphylococcus aureus UC-76, microtitration dilution, read-out: Minimal Inhibitory Concentration MIC
[17] = MA2646, Enterobacter cloacae MA 2646, microtitration dilution, read-out: Minimal Inhibitory Concentration MIC
[18] = Klebsiella pneumoniae, MGH2, read-out: Minimal Inhibitory Concentration MIC
[19] = M1771, read-out: Minimal Inhibitory Concentration MIC
[20] = MGH2, read-out: Minimal Inhibitory Concentration MIC

Row | SMILES | MIC [1] [µg/mL] | MIC (Escherichia coli Vogel; [9]) [µg/mL] | MIC [2] [µg/mL] | MIC [3, 10] [µg/mL] | MIC (Proteus rettgeri M 1771; [11]) [µg/mL] | MIC [4, 12] [µg/mL] | MIC [5, 13] [µg/mL] | MIC [6, 14] [µg/mL] | MIC [7, 15] [µg/mL] | MIC [8, 16] [µg/mL] | MIC [3, 17] [µg/mL] | MIC (Escherichia coli Vogel; Escherichia coli) [µg/mL] | MIC ([8]; Staphylococcus aureus, UC76, read-out: Minimal Inhibitory Concentration MIC) [µg/mL] | MIC [7, 18] [µg/mL] | MIC ([4]; Pseudomonas aeruginosa, UI18, read-out: Minimal Inhibitory Concentration MIC) [µg/mL] | MIC (Proteus rettgeri M 1771; [19]) [µg/mL] | MIC [6, 20] [µg/mL] | MIC ([5]; Streptococcus pneumoniae, SV1, read-out: Minimal Inhibitory Concentration MIC) [µg/mL]
1 | Cc1c(F)c(N2CCNCC2)c(Cl)c2c1c(=O)c(C(=O)O)cn2C1CC1 [Ex. 10, 8-Chloro-1-cyclopropyl-6-fluoro-1,4-dihydro-5-methyl-4-oxo-7-(1-piperazinyl)-3-quinolinecarboxylic acid] | 0.05 (≈ 0.132 µM) | 0.025 (≈ 0.0658 µM) | 0.2 (≈ 0.527 µM) | 0.05 (≈ 0.132 µM) | 0.2 (≈ 0.527 µM) | 0.2 (≈ 0.527 µM) | 0.1 (≈ 0.263 µM) | 0.2 (≈ 0.527 µM) | 0.1 (≈ 0.263 µM) | 0.025 (≈ 0.0658 µM) |  |  |  |  |  |  |  | 
2 | Cc1c(F)c(N2CCNC(C)C2)cc2c1c(=O)c(C(=O)O)cn2C1CC1 (centres unmarked) [Ex. 7, 1-Cyclopropyl-6-fluoro-1,4-dihydro-5-methyl-7-(3-methyl-1-piperazinyl)-4-oxo-3-quinolinecarboxylic acid] | 0.1 (≈ 0.278 µM) | 0.013 (≈ 0.0362 µM) | 0.05 (≈ 0.139 µM) |  | 0.2 (≈ 0.556 µM) | 0.8 (≈ 2.23 µM) | 0.025 (≈ 0.0696 µM) | 0.1 (≈ 0.278 µM) | 0.05 (≈ 0.139 µM) | 0.025 (≈ 0.0696 µM) | 0.025 (≈ 0.0696 µM) |  |  |  |  |  |  | 
3 | CCn1cc(C(=O)O)c(=O)c2c(C)c(F)c(N3CCNCC3)c(F)c21 [Ex. 12, 1-Ethyl-6,8-difluoro-1,4-dihydro-5-methyl-4-oxo-7-(1-piperazinyl)-3-quinolinecarboxylic acid] | 0.8 (≈ 2.28 µM) |  | 12.5 (≈ 35.6 µM) | 0.05 (≈ 0.142 µM) | 0.4 (≈ 1.14 µM) | 1.6 (≈ 4.55 µM) | 6.3 (≈ 17.9 µM) | 3.1 (≈ 8.82 µM) | 0.2 (≈ 0.569 µM) |  |  | 0.05 (≈ 0.142 µM) | 0.2 (≈ 0.569 µM) |  |  |  |  | 
4 | Cc1c(F)c(N2CC[C@@H]([C@H](C)N)C2)nc2c1c(=O)c(C(=O)O)cn2-c1ccc(F)cc1F [Ex. 23, 3R, 1'S-7-[3-(1-Aminoethyl)-1-pyrrolidinyl]-1-(2,4-difluorophenyl)-6-fluoro-1,4-dihydro-5-methyl-4-oxo-1,8-naphthyridine carboxylic acid] | 0.006 (≈ 0.0134 µM) | 0.1 (≈ 0.224 µM) | 0.003 (≈ 0.00672 µM) |  | 0.2 (≈ 0.448 µM) | 0.2 (≈ 0.448 µM) | 0.003 (≈ 0.00672 µM) | 0.013 (≈ 0.0291 µM) |  | 0.003 (≈ 0.00672 µM) | 0.2 (≈ 0.448 µM) |  |  | 0.1 (≈ 0.224 µM) |  |  |  | 
5 | Cc1c(F)c(N2CCNCC2)nc2c1c(=O)c(C(=O)O)cn2C1CC1 [Ex. 19, 1-Cyclopropyl-6-fluoro-1,4-dihydro-5-methyl-4-oxo-7-(1-piperazinyl)-1,8-naphthyridine-3-carboxylic acid] | 0.2 (≈ 0.577 µM) | 0.013 (≈ 0.0375 µM) | 0.4 (≈ 1.15 µM) |  | 0.2 (≈ 0.577 µM) |  | 0.1 (≈ 0.289 µM) | 0.2 (≈ 0.577 µM) | 0.05 (≈ 0.144 µM) | 0.1 (≈ 0.289 µM) | 0.025 (≈ 0.0722 µM) |  |  |  | 0.4 (≈ 1.15 µM) |  |  | 
6 | Cc1c(F)c(N2CCC(C)(CN)C2)cc2c1c(=O)c(C(=O)O)cn2-c1ccc(F)cc1F (centres unmarked) [Ex. 17e, 7-[3-(Aminomethyl)-3-methyl-1-pyrrolidinyl]-6-fluoro-1(2,4-difluorophenyl)-1,4-dihydro-5-methyl-4-oxo-3-quinolinecarboxylic acid] | 0.05 (≈ 0.112 µM) | 0.4 (≈ 0.898 µM) | 0.025 (≈ 0.0561 µM) |  | 0.8 (≈ 1.8 µM) | 3.1 (≈ 6.96 µM) | 0.013 (≈ 0.0292 µM) | 0.2 (≈ 0.449 µM) | 0.8 (≈ 1.8 µM) | 0.013 (≈ 0.0292 µM) | 0.4 (≈ 0.898 µM) |  |  |  |  |  |  | 
7 | Cc1c(F)c(N2CCC(N)C2)nc2c1c(=O)c(C(=O)O)cn2-c1ccc(F)cc1F (centres unmarked) [Ex. 22, 7-(3-Amino-1-pyrrolidinyl)-1-(2,4-difluorophenyl)-6-fluoro-1,4-dihydro-5-methyl-4-oxo-1,8-naphthyridine-3-carboxylic acid] | 0.05 (≈ 0.12 µM) | 0.05 (≈ 0.12 µM) | 0.05 (≈ 0.12 µM) | 0.05 (≈ 0.12 µM) |  | 0.2 (≈ 0.478 µM) | 0.05 (≈ 0.12 µM) | 0.1 (≈ 0.239 µM) | 0.05 (≈ 0.12 µM) | 0.013 (≈ 0.0311 µM) |  |  |  |  |  | 0.1 (≈ 0.239 µM) |  | 
8 | Cc1c(F)c(N2CC(C)NC(C)C2)cc2c1c(=O)c(C(=O)O)cn2-c1ccc(F)cc1F (centres unmarked) [Ex. 17b, 6-Fluoro-1-(2,4-difluorophenyl)-1,4-dihydro-5-methyl-7-(3,5-dimethyl-1-piperazinyl)-4-oxo-3-quinolinecarboxylic acid] | 0.1 (≈ 0.224 µM) | 0.2 (≈ 0.449 µM) | 0.1 (≈ 0.224 µM) |  | 1.6 (≈ 3.59 µM) | 1.6 (≈ 3.59 µM) | 0.05 (≈ 0.112 µM) |  | 0.8 (≈ 1.8 µM) | 0.05 (≈ 0.112 µM) | 0.4 (≈ 0.898 µM) |  |  |  |  |  | 0.8 (≈ 1.8 µM) | 
9 | Cc1c(F)c(N2CCNCC2)cc2c1c(=O)c(C(=O)O)cn2-c1ccc(F)cc1F [Ex. 17, 6-Fluoro-1-(2,4-difluorophenyl)-1,4-dihydro-5-methyl-4-oxo-7-(1-piperazinyl)-3-quinolinecarboxylic acid] | 0.1 (≈ 0.24 µM) | 0.05 (≈ 0.12 µM) | 0.1 (≈ 0.24 µM) |  | 0.2 (≈ 0.479 µM) | 0.8 (≈ 1.92 µM) | 0.05 (≈ 0.12 µM) | 0.2 (≈ 0.479 µM) | 0.1 (≈ 0.24 µM) | 0.025 (≈ 0.0599 µM) | 0.05 (≈ 0.12 µM) |  |  |  |  |  |  | 
10 | CCn1cc(C(=O)O)c(=O)c2c(C)c(F)c(N3CCC(N)C3)c(F)c21 (centres unmarked) [Ex. 13, 7-(3-Amino-1-pyrrolidinyl)-1-ethyl-6,8-difluoro-1,4-dihydro-5-methyl-4-oxo-3-quinolinecarboxylic acid] | 0.4 (≈ 1.14 µM) | 0.05 (≈ 0.142 µM) | 3.1 (≈ 8.82 µM) | 0.05 (≈ 0.142 µM) | 0.4 (≈ 1.14 µM) | 1.6 (≈ 4.55 µM) |  |  | 0.2 (≈ 0.569 µM) | 0.1 (≈ 0.285 µM) |  |  |  |  |  |  | 0.8 (≈ 2.28 µM) | 1.6 (≈ 4.55 µM)
11 | Cc1c(F)c(N2CCC(N)C2)nc2c1c(=O)c(C(=O)O)cn2C1CC1 (centres unmarked) [Ex. 18, 7-(3-Amino-1-pyrrolidinyl)-1-cyclopropyl-6-fluoro-1,4-dihydro-5-methyl-4-oxo-1,8-naphthyridine-3-carboxylic acid] | 0.25 (≈ 0.722 µM) | 0.013 (≈ 0.0375 µM) | 0.025 (≈ 0.0722 µM) |  |  | 0.2 (≈ 0.577 µM) | 0.013 (≈ 0.0375 µM) | 0.05 (≈ 0.144 µM) | 0.025 (≈ 0.0722 µM) | 0.013 (≈ 0.0375 µM) | 0.013 (≈ 0.0375 µM) |  |  |  |  | 0.1 (≈ 0.289 µM) |  | 
12 | Cc1c(F)c(N2CCC(N)C2)c(F)c2c1c(=O)c(C(=O)O)cn2-c1ccc(F)cc1F (centres unmarked) [Ex. 15, 7(3-Amino-1-pyrrolidinyl)-6,8-difluoro-1-(2,4-difluorophenyl)-1,4-dihydro-5-methyl-4-oxo-3-quinolinecarboxylic acid] | 0.05 (≈ 0.115 µM) | 0.025 (≈ 0.0574 µM) | 0.1 (≈ 0.23 µM) |  | 0.2 (≈ 0.459 µM) | 0.8 (≈ 1.84 µM) | 0.1 (≈ 0.23 µM) | 0.2 (≈ 0.459 µM) |  | 0.025 (≈ 0.0574 µM) | 0.025 (≈ 0.0574 µM) |  |  | 0.1 (≈ 0.23 µM) |  |  |  | 
13 | Cc1c(F)c(N2CCC(C)(CN)C2)cc2c1c(=O)c(C(=O)O)cn2C1CC1 (centres unmarked) [Ex. 9, 7-[3-(Aminomethyl)-3-methyl-1-pyrrolidinyl]-1-cyclopropyl-6-fluoro-1,4-dihydro-5-methyl-4-oxo-3-quinolinecarboxylic acid] | 0.025 (≈ 0.0669 µM) | 0.1 (≈ 0.268 µM) | 0.013 (≈ 0.0348 µM) |  | 0.8 (≈ 2.14 µM) | 1.6 (≈ 4.28 µM) | 0.006 (≈ 0.0161 µM) | 0.1 (≈ 0.268 µM) | 0.4 (≈ 1.07 µM) | 0.006 (≈ 0.0161 µM) | 0.1 (≈ 0.268 µM) |  |  |  |  |  |  | 
14 | Cc1c(F)c(N2CCC(N)C2)cc2c1c(=O)c(C(=O)O)cn2C1CC1 (centres unmarked) [Ex. 8, 7-(3-Amino-1-pyrrolidinyl)-1-cyclopropyl-6-fluoro-1,4-dihydro-5-methyl-4-oxo-3-quinolinecarboxylic acid] | 0.1 (≈ 0.29 µM) | 0.025 (≈ 0.0724 µM) | 0.025 (≈ 0.0724 µM) | 0.05 (≈ 0.145 µM) | 0.1 (≈ 0.29 µM) | 0.4 (≈ 1.16 µM) | 0.013 (≈ 0.0376 µM) | 0.4 (≈ 1.16 µM) | 0.1 (≈ 0.29 µM) | 0.025 (≈ 0.0724 µM) |  |  |  |  |  |  |  | 
